Laboratory results: the OPERA property sets (Mansouri et al. 2018)

Molecule `NC(=O)Cc1ccc(-n2sc3ccccc3c2=O)cc1` has a logP of 1.72.
In the case of `CN(C)C(=O)Oc1cccc(F)c1`, the logP is reported as 1.75.
For `Nc1n[n+]([O-])c2cc(OCC(O)CO)ccc2[n+]1[O-]` (stereo not given), the logP was -1.1.
`CCOC(=O)COc1ccc(-n2sc3ccccc3c2=O)cc1` gave a logP of 2.96.
`Cc1ccccc1S(=O)(=O)N1C(=O)NC(=O)C1(c1ccccc1)c1ccccc1` showed a logP of 4.
`COc1ccc2cc(CC(=O)OCC(=O)N(C)C)ccc2c1` gave a logP of 2.23.
`CCCc1ccc(CO)cc1` showed a logP of 2.67.
For `CC(=O)NC(CCCCNC(=O)N(C)N=O)C(=O)NCc1ccccc1` (stereo not given), the logP was 1.18.
Molecule `CC=CCOCN(C(=O)CCl)c1c(CC)cccc1CC` has a logP of 3.51.
`CCOc1ccc(NC(=O)OCCF)cc1OCC` gave a logP of 2.27.
With `COC(=O)C(C)c1ccc(-n2sc3ccccc3c2=O)cc1` (stereo not given) the logP was 3.46.
Molecule `C#CCC(C)OC(=O)Nc1ccc(OCC)c(OCC)c1` (stereo not given) has a logP of 2.86.
`CCOc1cc[n+]([O-])cc1` showed a logP of -0.53.
`CCCN(CCCC(NC(C)=O)C(=O)NCc1ccccc1)C(=O)NC` (stereo not given) gave a logP of 1.47.
`CCCCCOc1ccccc1NC(=O)OC1CCCCC1CN(C)C` (stereo not given) gave a logP of 5.46.
For `CCCCCCn1c(N)c(N)c(=O)[nH]c1=O`, the logP was 1.01.
`CCCN(CCC)C(=O)COC(=O)Cc1ccc2cc(OC)ccc2c1` showed a logP of 4.04.
For `Cn1c(N)c(N)c(=O)[nH]c1=O`, the logP was -1.4.
Molecule `Cc1ccc(CC2CCCC2(O)Cn2cncn2)cc1` (stereo not given) has a logP of 2.71.
In the case of `CCOc1ccc(NC(=O)OC(C)COC)cc1OCC` (stereo not given), the logP is reported as 2.56.
For `C#CCOc1ccc(NC=NOC)cc1OCC#C`, the logP was 1.6.
Work on `CC1CCC2C(C)COC3OC4(C)CCC1C32OO4` (stereo not given) yielded a logP of 3.16.
With `CCOC(=O)C(C)c1ccc(-n2sc3ccccc3c2=O)cc1` (stereo not given) the logP was 3.91.
With `[O-][n+]1nc2ccccc2c2ccccc21` the logP was 2.24.
With `CC(=O)Nc1n[n+]([O-])c2ccccc2[n+]1[O-]` the logP was -0.6.
Molecule `C#CCOc1cc(NC=NOCC)cc(Cl)c1OCC#C` has a logP of 2.6.
For `CNC(=O)NCCCCC(NC(C)=O)C(=O)NCc1ccccc1` (stereo not given), the logP was 0.06.
Work on `Cc1cc[n+]([O-])cc1` yielded a logP of -0.88.
For `CC(C)(C)c1ccc(CC2CCCC2(O)Cn2cncn2)cc1` (stereo not given), the logP was 3.97.
In the case of `CCC(C(=O)OC)c1ccc(-n2sc3ccccc3c2=O)cc1` (stereo not given), the logP is reported as 3.91.
For `Cc1ccc2c(c1)[n+]([O-])nc(N)[n+]2[O-]`, the logP was 0.2.
`CCN(CC)C(=O)COC(=O)Cc1ccc2cc(OC)ccc2c1` showed a logP of 3.05.
Molecule `COc1ccc2cc(CC(=O)OCC(=O)N3CCOCC3)ccc2c1` has a logP of 2.13.
`COC(=O)c1ccc(-n2sc3ccccc3c2=O)cc1` showed a logP of 3.49.
`COP(=O)(CC(C)=O)OC` showed a logP of -0.86.
In the case of `Nc1n[n+]([O-])c2ccc(Cl)cc2[n+]1[O-]`, the logP is reported as 0.41.
`COc1ccc2cc(CC(=O)OCC(=O)NC3CCCCC3)ccc2c1` showed a logP of 3.99.
Molecule `C=CCNC(=O)NCCCC(NC(C)=O)C(=O)NCc1ccccc1` (stereo not given) has a logP of 0.68.
`C1SCC2=NOS3=C2C1=NO3` showed a logP of 1.2.
For `CCOC(=O)NC1CCc2cc(OC)c(OC)c(OC)c2-c2ccc(OC)c(=O)cc21` (stereo not given), the logP was 2.3.
Work on `CC(=O)NC(CCCNC(=O)N(C)N=O)C(=O)NCc1ccccc1` (stereo not given) yielded a logP of 0.98.
`[O-][n+]1ccc(Cl)cc1` showed a logP of -0.44.
Molecule `CCCCOc1ccccc1NC(=O)OC1CCCCC1CN(C)C` (stereo not given) has a logP of 5.01.
Work on `CCCCCCCCn1c(N)c(N)c(=O)[nH]c1=O` yielded a logP of 2.05.
For `CCOc1ccc(NC(=O)OC(C)CCl)cc1OCC` (stereo not given), the logP was 2.97.
`C#CCOc1cc(NC=NOC)cc(Cl)c1OCC#C` showed a logP of 2.3.
With `C=CCOc1ccc2c(c1)[n+]([O-])nc(N)[n+]2[O-]` the logP was 0.76.
In the case of `CN(C)C(=O)Oc1ccc(C#N)cc1`, the logP is reported as 1.21.
Molecule `CC(=O)CC(=O)Nc1n[n+]([O-])c2ccccc2[n+]1[O-]` has a logP of -1.4.
For `C=CCC(C)OC(=O)Nc1ccc(OCC)c(OCC)c1` (stereo not given), the logP was 3.37.
`C#CCOc1cc(NC=NOCC=C)cc(Cl)c1OCC#C` showed a logP of 2.7.
In the case of `CCC1CCC(Cc2ccc(Cl)cc2)C1(O)Cn1cncn1` (stereo not given), the logP is reported as 3.71.
Molecule `COC1N(C2CC(N=[N+]=[N-])C(CO)O2)C(=O)NC(=O)C1(C)I` (stereo not given) has a logP of 1.03.
`CCCc1ccc(OC(=O)N(C)C)cc1` gave a logP of 3.15.
Molecule `CN(C)C(=O)Oc1cccc([N+](=O)[O-])c1` has a logP of 1.56.
`COC1N(C2CC(N=[N+]=[N-])C(CO)O2)C(=O)NC(=O)C1(C)Cl` (stereo not given) showed a logP of 0.84.
`OC1(Cn2cncn2)CCCC1Cc1ccc(Cl)cc1` (stereo not given) showed a logP of 3.11.
With `C=CC(CC)OC(=O)Nc1ccc(OCC)c(OCC)c1` (stereo not given) the logP was 3.42.
For `CCNC(=O)COC(=O)Cc1ccc2cc(OC)ccc2c1`, the logP was 2.65.
`COc1ccc2cc(CC(=O)OCC(=O)N3CCCC3)ccc2c1` gave a logP of 2.71.
`COc1ccccc1NC(=O)OC1CCCCC1CN(C)C` (stereo not given) gave a logP of 3.55.
With `CCOc1ccc(NC(=O)OC(C)CF)cc1OCC` (stereo not given) the logP was 2.59.
With `COc1ccc2cc(CC(=O)OCC(=O)N(CCO)CCO)ccc2c1` the logP was 1.41.
For `CN(C)C(=O)Oc1ccc(Br)cc1`, the logP was 2.46.
For `CC(=O)NC(CCCNC(=O)NCCCl)C(=O)NCc1ccccc1` (stereo not given), the logP was 0.34.
`CCCCCCOc1ccccc1NC(=O)OC1CCCCC1CN(C)C` (stereo not given) showed a logP of 5.9.
With `CCOc1ccc(-c2nnc(NC(=O)c3c(OC)cccc3OC)s2)cc1` the logP was 3.75.
For `COC1N(C2CC(N=[N+]=[N-])C(CO)O2)C(=O)NC(=O)C1(C)Br` (stereo not given), the logP was 1.12.
Work on `CCc1ccc(CO)cc1` yielded a logP of 2.27.
Work on `CN(C)C(=O)Oc1cccc(Cl)c1` yielded a logP of 2.33.
`C#CCCOC(=O)Nc1ccc(OCC)c(OCC)c1` showed a logP of 2.54.
Molecule `COc1ccc2c(c1OC)-c1ccc(OC)c(=O)cc1C(NC(C)=O)CC2` (stereo not given) has a logP of 1.02.
In the case of `CCCN(CCCCC(NC(C)=O)C(=O)NCc1ccccc1)C(=O)N(C)N=O` (stereo not given), the logP is reported as 1.73.
Molecule `CNC(=O)COC(=O)Cc1ccc2cc(OC)ccc2c1` has a logP of 2.19.
`CNC(=O)N(CCCCC(NC(C)=O)C(=O)NCc1ccccc1)Cc1ccccc1` (stereo not given) showed a logP of 1.99.
In the case of `CCCCCCCCCCn1c(N)c(N)c(=O)[nH]c1=O`, the logP is reported as 3.04.
`CCCN1CCN(CCC)C1=S` showed a logP of 1.86.
For `Nc1ncn(C2CC(O)C(CO)O2)c(=O)n1` (stereo not given), the logP was -1.89.
With `COc1ccc(-c2nnc(NC(=O)c3c(OC)cccc3OC)s2)cc1` the logP was 3.56.
With `O=S1CC2=NOS3=C2C(=NO3)C1` the logP was -0.3.
In the case of `CCCCc1ccc(CO)cc1`, the logP is reported as 3.
Molecule `COC(=O)NC(=S)Nc1ccccc1N` has a logP of 0.7.
`CC(=O)NC(CCCCN(Cc1ccccc1)C(=O)N(C)N=O)C(=O)NCc1ccccc1` (stereo not given) gave a logP of 2.12.
`OC1(Cn2cncn2)CCCC1Cc1ccc(-c2ccccc2)cc1` (stereo not given) gave a logP of 3.92.
For `C=CCN1CCN(CC=C)C1=S`, the logP was 1.63.
`COc1cccc(OC)c1C(=O)Nc1nnc(-c2ccc(Br)cc2)s1` showed a logP of 3.92.
In the case of `COc1ccc2cc(CC(=O)OCC(=O)N(C)CCO)ccc2c1`, the logP is reported as 1.58.
With `CCCNC(=O)COC(=O)Cc1ccc2cc(OC)ccc2c1` the logP was 3.1.
For `COc1cccc(OC)c1C(=O)Nc1nnc(-c2ccccc2)s1`, the logP was 3.5.
Work on `CN(C)C(=O)Oc1ccc(F)cc1` yielded a logP of 1.58.
In the case of `CC12CCC(CC1=O)C2(C)C` (stereo not given), the logP is reported as 2.38.
`CC(=O)NC(CCCCNC(=O)NCCCl)C(=O)NCc1ccccc1` (stereo not given) showed a logP of 0.61.
`CCOc1ccccc1NC(=O)OC1CCCCC1CN(C)C` (stereo not given) gave a logP of 4.14.
`C#CCOc1cc(NC=NOCOC)cc(F)c1OCC#C` showed a logP of 1.7.
`C=CCNC(=O)N(CCC)CCCCC(NC(C)=O)C(=O)NCc1ccccc1` (stereo not given) showed a logP of 1.75.
Molecule `CC(=O)c1cc[n+]([O-])cc1` has a logP of -0.93.
Work on `CCC(C)NC(=O)COC(=O)Cc1ccc2cc(OC)ccc2c1` (stereo not given) yielded a logP of 3.31.
With `O=[N+]([O-])C=C1CCCN1Cc1ccc(Cl)nc1` the logP was 0.68.
For `COCCNC(=O)Cn1ccnc1[N+](=O)[O-]`, the logP was -0.77.
With `CCCCCCCOc1ccccc1NC(=O)OC1CCCCC1CN(C)C` (stereo not given) the logP was 6.3.
With `COc1ccc2cc(CC(=O)OCC(N)=O)ccc2c1` the logP was 1.88.
With `C=CCN(N=O)C(=O)N(CCC)CCCC(NC(C)=O)C(=O)NCc1ccccc1` (stereo not given) the logP was 2.16.
`C=CCN(CC=C)C(=O)COC(=O)Cc1ccc2cc(OC)ccc2c1` showed a logP of 3.67.
In the case of `ClC1=C(Cl)C2C(C1Cl)C1(Cl)C(Cl)C(Cl)C2(Cl)C1(Cl)Cl` (stereo not given), the logP is reported as 6.08.
With `C#CCOc1cc(NC=NOCC)cc(F)c1OCC#C` the logP was 2.1.
`COC(=O)Cc1ccc(-n2sc3ccccc3c2=O)cc1` gave a logP of 2.83.
Work on `C#CCOc1cc(NC=NOCOC)cc(Cl)c1OCC#C` yielded a logP of 2.2.
Work on `O=C1NC(=O)C(c2ccccc2)(c2ccccc2)N1S(=O)(=O)c1ccc([N+](=O)[O-])cc1` yielded a logP of 4.04.
Molecule `CCSc1nnc(C(C)(C)C)c(=O)n1N` has a logP of 2.08.
Work on `O=C1NC(Cc2c[nH]c3ccccc23)C(=O)NC1Cc1ccc(O)cc1` (stereo not given) yielded a logP of 1.05.
Molecule `COc1ccc2cc(CC(=O)O)ccc2c1` has a logP of 2.82.
Molecule `CNC(=O)ON=C(CSC)C(C)(C)C` has a logP of 2.75.
`C#CCON=CNc1cc(F)c(OCC#C)c(OCC#C)c1` gave a logP of 1.8.
Work on `CN(C)C(=O)Oc1cccc(C#N)c1` yielded a logP of 1.23.
Molecule `COc1cccc(OC)c1C(=O)Nc1nnc(-c2ccc(F)cc2)s1` has a logP of 3.5.
For `C#CCOc1cc(NC=NOC)cc(F)c1OCC#C`, the logP was 1.8.
Molecule `CCCCNC(=O)COC(=O)Cc1ccc2cc(OC)ccc2c1` has a logP of 3.57.
Molecule `CC(=O)Oc1cccc(C(=O)O)c1` has a logP of 1.49.
For `C#CCON=CNc1cc(Cl)c(OCC#C)c(OCC#C)c1`, the logP was 2.3.
In the case of `CNC(=O)N(CCCC(NC(C)=O)C(=O)NCc1ccccc1)Cc1ccccc1` (stereo not given), the logP is reported as 1.86.
Work on `C=CCN(N=O)C(=O)N(CCCCC(NC(C)=O)C(=O)Nc1ccccc1)Cc1ccccc1` (stereo not given) yielded a logP of 2.7.
`C=CCNC(=O)N(CCC)CCCC(NC(C)=O)C(=O)NCc1ccccc1` (stereo not given) gave a logP of 1.21.
With `O=C1NC(=O)C(c2ccccc2)(c2ccccc2)N1S(=O)(=O)c1ccc(Cl)cc1` the logP was 4.48.
With `COc1ccc2cc(CC(=O)OCC(=O)NC(C)(C)C)ccc2c1` the logP was 3.6.
`CCc1ccc(OC(=O)N(C)C)cc1` gave a logP of 2.55.
`C=CCN(N=O)C(=O)NCCCC(NC(C)=O)C(=O)NCc1ccccc1` (stereo not given) showed a logP of 1.3.
In the case of `CC(C(N)=O)c1ccc(-n2sc3ccccc3c2=O)cc1` (stereo not given), the logP is reported as 2.07.
Work on `CC(=O)c1ccc(OC(=O)N(C)C)cc1` yielded a logP of 1.27.
For `COc1ccc2cc(CC(=O)OCC(=O)N(C(C)C)C(C)C)ccc2c1`, the logP was 3.89.
Work on `CCN(CCO)C(=O)COC(=O)Cc1ccc2cc(OC)ccc2c1` yielded a logP of 1.98.
`Cc1cc2cc3c(C)cc(=O)oc3c(C)c2o1` gave a logP of 3.14.
For `CC1(C)CC2=NOS3=C2C(=NO3)C1`, the logP was 1.9.
`CCCN(CCCCC(NC(C)=O)C(=O)NCc1ccccc1)C(=O)NC` (stereo not given) gave a logP of 1.6.
`CCOC(=O)C(C)Oc1ccc(-n2sc3ccccc3c2=O)cc1` (stereo not given) gave a logP of 3.89.
`CC(=O)Nc1n[n+]([O-])c2cc(C)ccc2[n+]1[O-]` gave a logP of -0.4.
